Data published in ChEMBL document CHEMBL3763016, “Design, synthesis and biological evaluation of 3'-benzylated analogs of 3'-epi-neoponkoranol as potent α-glucosidase inhibitors” (Eur J Med Chem, 2016).

Columns and labels:
[1] = target: T1, Sucrase-isomaltase, intestinal (Rattus norvegicus, UniProt P23739); test: Inhibition of rat intestinal sucrase using sucrose as substrate incubated for 30 mins by glucose-oxidase method
[2] = Inhibition of rat intestinal maltase using maltose as substrate incubated for 30 mins by glucose-oxidase method
[3] = target: T1, Sucrase-isomaltase, intestinal; test: Competitive inhibition of rat intestinal sucrase using sucrose as substrate incubated for 30 mins by Lineweaver-Burk plot analysis
[4] = Competitive inhibition of rat intestinal maltase using maltose as substrate incubated for 30 mins by Lineweaver-Burk plot analysis
[5] = Cytotoxicity against human HELF cells by MTT assay; assay type: cell-based
[6] = target: Sucrase-isomaltase, intestinal (Rattus norvegicus) (UniProt P23739); test: Potency index, ratio of acarbose IC50 to compound IC50 for rat intestinal sucrase
Sucrase-isomaltase, intestinal (Rattus norvegicus), sequence (P23739 1-1013 limits assumed): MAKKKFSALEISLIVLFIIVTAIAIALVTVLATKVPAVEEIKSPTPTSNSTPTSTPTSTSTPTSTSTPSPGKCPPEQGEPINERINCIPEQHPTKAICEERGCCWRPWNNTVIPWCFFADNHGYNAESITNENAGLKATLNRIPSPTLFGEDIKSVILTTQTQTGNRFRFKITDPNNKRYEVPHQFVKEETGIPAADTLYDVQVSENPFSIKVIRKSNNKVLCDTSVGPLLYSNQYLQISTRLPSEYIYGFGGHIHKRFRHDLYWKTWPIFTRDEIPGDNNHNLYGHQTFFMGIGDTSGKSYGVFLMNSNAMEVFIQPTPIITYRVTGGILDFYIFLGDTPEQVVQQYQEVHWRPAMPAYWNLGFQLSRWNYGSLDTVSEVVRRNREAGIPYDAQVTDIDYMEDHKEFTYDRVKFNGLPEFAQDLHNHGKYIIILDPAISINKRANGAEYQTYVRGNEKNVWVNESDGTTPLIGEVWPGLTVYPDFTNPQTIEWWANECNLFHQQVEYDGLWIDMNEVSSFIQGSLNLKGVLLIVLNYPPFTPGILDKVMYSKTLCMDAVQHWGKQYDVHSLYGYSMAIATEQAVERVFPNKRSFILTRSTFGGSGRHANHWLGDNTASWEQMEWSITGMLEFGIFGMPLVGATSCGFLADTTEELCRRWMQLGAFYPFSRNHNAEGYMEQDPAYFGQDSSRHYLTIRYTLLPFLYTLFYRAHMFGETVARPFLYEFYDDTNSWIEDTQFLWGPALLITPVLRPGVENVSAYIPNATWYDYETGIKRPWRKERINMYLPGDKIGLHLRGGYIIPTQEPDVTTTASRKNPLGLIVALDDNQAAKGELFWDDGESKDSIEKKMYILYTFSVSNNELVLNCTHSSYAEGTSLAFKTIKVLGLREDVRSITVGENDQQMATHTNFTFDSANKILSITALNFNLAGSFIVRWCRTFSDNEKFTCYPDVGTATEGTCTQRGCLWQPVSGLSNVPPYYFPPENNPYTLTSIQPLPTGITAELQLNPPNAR
Sucrase-isomaltase, intestinal (Rattus norvegicus), sequence (P23739 1014-1841 limits assumed): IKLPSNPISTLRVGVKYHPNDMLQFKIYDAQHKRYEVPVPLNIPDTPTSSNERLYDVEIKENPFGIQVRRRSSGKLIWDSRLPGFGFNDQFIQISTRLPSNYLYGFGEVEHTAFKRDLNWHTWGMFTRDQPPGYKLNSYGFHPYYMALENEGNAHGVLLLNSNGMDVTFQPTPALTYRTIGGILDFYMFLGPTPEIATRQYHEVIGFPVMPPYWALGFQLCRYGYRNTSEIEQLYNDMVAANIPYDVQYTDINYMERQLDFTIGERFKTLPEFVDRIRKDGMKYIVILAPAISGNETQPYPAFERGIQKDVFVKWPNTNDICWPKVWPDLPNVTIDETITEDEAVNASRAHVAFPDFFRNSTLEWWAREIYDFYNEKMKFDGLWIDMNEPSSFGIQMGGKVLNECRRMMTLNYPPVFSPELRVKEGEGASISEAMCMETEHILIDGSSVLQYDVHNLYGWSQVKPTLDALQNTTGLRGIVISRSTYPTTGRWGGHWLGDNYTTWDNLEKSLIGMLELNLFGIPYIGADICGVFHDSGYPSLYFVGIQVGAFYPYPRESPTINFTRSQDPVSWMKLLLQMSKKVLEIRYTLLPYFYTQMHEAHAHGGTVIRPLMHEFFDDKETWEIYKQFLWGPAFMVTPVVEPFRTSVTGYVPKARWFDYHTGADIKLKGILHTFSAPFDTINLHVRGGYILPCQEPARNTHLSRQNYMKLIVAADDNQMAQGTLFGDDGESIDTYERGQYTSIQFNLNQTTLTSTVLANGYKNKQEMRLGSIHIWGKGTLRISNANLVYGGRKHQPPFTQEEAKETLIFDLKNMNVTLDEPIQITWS

T1 sequence (P23739 1-1013 limits assumed): as the sequence (P23739 1-1013 limits assumed) above
T1 sequence (P23739 1014-1841 limits assumed): as the sequence (P23739 1014-1841 limits assumed) above

SMILES	IC50 [1] [µM]	IC50 [2] [µM]	Ki [3] [µM]	Ki [4] [mg/L]	IC50 [5] [µM]	Ratio IC50 [6]
OC[C@@H]1[C@@H](O)[C@H](O)C[S+]1C[C@@H](O)[C@H](O)[C@H](O)[C@@H](O)CO (some centres undefined)	0.3	2	–	–	–	–
OC[C@@H]1[C@@H](O)[C@H](O)C[S+]1C[C@@H](O)[C@H](OCc1ccc(Cl)cc1)[C@H](O)[C@@H](O)CO (some centres undefined)	5.6	18.3	–	–	–	–
OC[C@@H]1[C@@H](O)[C@H](O)C[S+]1C[C@@H](O)[C@H](OCc1cccc(Cl)c1)[C@H](O)[C@@H](O)CO (some centres undefined)	0.51	5.2	–	–	–	–
O=[N+]([O-])c1ccccc1CO[C@H]([C@H](O)[C@@H](O)CO)[C@H](O)C[S+]1C[C@@H](O)[C@H](O)[C@H]1CO.[Cl-] (some centres undefined)	0.32	3.5	0.185	0.6	> 500	–
OC[C@@H]1[C@@H](O)[C@H](O)C[S+]1C[C@@H](O)[C@H](OCc1ccccc1Cl)[C@H](O)[C@@H](O)CO.[Cl-] (some centres undefined)	0.7	8.2	0.21	0.45	> 500	–
O=[N+]([O-])c1cccc(CO[C@H]([C@H](O)[C@@H](O)CO)[C@H](O)C[S+]2C[C@@H](O)[C@H](O)[C@H]2CO)c1 (some centres undefined)	0.21	6.7	–	–	–	–
OC[C@@H]1[C@@H](O)[C@H](O)C[S+]1C[C@@H](O)[C@H](OCc1ccc(C(F)(F)F)cc1)[C@H](O)[C@@H](O)CO.[Cl-] (some centres undefined)	4.6	10	0.786	0.74	–	–
O=[N+]([O-])c1ccc(CO[C@H]([C@H](O)[C@@H](O)CO)[C@H](O)C[S+]2C[C@@H](O)[C@H](O)[C@H]2CO)cc1 (some centres undefined)	4.2	32.4	–	–	–	–
OC[C@@H]1[C@@H](O)[C@H](O)C[S+]1C[C@@H](O)[C@H](OCc1ccccc1)[C@H](O)[C@@H](O)CO (some centres undefined)	1.9	5.3	–	–	–	–
OC[C@@H]1[C@@H](O)[C@H](O)C[S+]1C[C@@H](O)[C@H](OCc1cccc(C(F)(F)F)c1)[C@H](O)[C@@H](O)CO.[Cl-] (some centres undefined)	0.45	9.6	0.354	0.66	–	–
OC[C@@H]1[C@@H](O)[C@H](O)C[S+]1C[C@@H](O)[C@H](OCc1ccccc1C(F)(F)F)[C@H](O)[C@@H](O)CO.[Cl-] (some centres undefined)	0.2	2.5	0.216	0.28	> 500	10
CCO[C@H]([C@H](O)[C@@H](O)CO)[C@H](O)C[S+]1C[C@@H](O)[C@H](O)[C@H]1CO (some centres undefined)	0.27	9.5	–	–	–	–
OCC(CO)N[C@H]1C[C@](O)(CO)[C@@H](O)[C@H](O)[C@H]1O [VOGLIBOSE]	0.3	–	–	–	–	–
